Source: publication PMC11393453, “Phosphorylation of tau at a single residue inhibits binding to the E3 ubiquitin ligase, CHIP” (Nature Communications, 2024)
Like-named read-outs stand apart in the source and are kept apart here.

Key:
CHIP [1] = test: NanoBiT live cell PPI assay (CHIP-tau split luciferase); assay type: cell-based; conditions: Fig 1B, normalized to FL tau with vehicle, 30nM OA
Protocol: Fig. 1 Phosphorylation of tauC3 inhibits interaction with CHIP. A Cartoon schematic of the live-cell NanoBiT assay for measuring CHIP-tau PPIs (NanoBiT PDB = 7SNX; CHIP PDB = 2C2L). B Results of NanoBiT assays for CHIP interactions with tau proteoforms following treatment with okadaic acid (30 nM, 18 h) or DMSO control. Luminescence normalized to CHIP binding to FL 0N4R tau treated with vehicle (dashed line). Error bars represent standard deviation (SD). Statistical significance was determined by two-way ANOVA with Bonferroni’s post hoc analysis (n = 3 biological replicates). CTRL = mock transfected control. C Tau proteoforms binding to immobilized CHIP measured by ELISA. Assay was performed in technical triplicate and normalized to maximum absorbance at 450 nm. D Dissociation constants derived from (C). Error bars represent SD. E In vitro ubiquitination of tau proteoforms by CHIP. Samples were collected at the denoted timepoints, quenched in SDS-PAGE loading buffer, and analyzed by western blot. Assay was performed once.
Fig. 2 Phosphorylation of tauC3 Ser416 is sufficient to inhibit interaction with CHIP. A Cartoon depicting constructs used for mapping of inhibitory phosphorylation sites by NanoBiT live cell assays. B NanoBiT live cell assay for CHIP interactions with truncated tau constructs following treatment with okadaic acid (30 nM, 18 h) or DMSO control. Data are shown as the difference between okadaic acid treated samples and vehicle control. Error bars represent SD. Statistical significance was determined by two-sided, one-way ANOVA with Tukey’s post hoc analysis (n = 3 biological replicates). C Apparent change in melting temperatures (Tmapp) for CHIP incubated with DMSO control or Hsp70 C-terminal peptides, as determined by DSF. Error bars represent SD. (n = 4 technical replicates). D DSF experiments performed and analyzed as in the previous panel, but with tauC3-derived peptides. (n = 4 technical replicates). E Competition FP experiment showing displacement of fluorescent tracer from the CHIP TPR domain by various 10-mer Hsp70 or tauC3-derived peptides. Experiments were performed in technical quadruplicate. F Inhibition constants derived from (E). Error bars represent SD. G Tau proteoforms binding to immobilized CHIP, as measured by ELISA. Assay was performed in technical triplicate and normalized to maximum absorbance at 450 nm. H Dissociation constants derived from (G). Error bars represent SD.
CHIP-substrate NanoBiT PPI assay was performed as previously described. Briefly, HEK293T cells were seeded in poly-D-lysine coated 96-well plates (Corning, flat bottom, white opaque) in Opti-MEM. Cells were transfected with 50 ng each SmBiT/LgBiT DNA using Lipofectamine 3000 (Thermo Fisher) in Opti-MEM according to the manufacturer’s instructions. Transfections were performed for 24 h, after which the media was replaced with fresh Opti-MEM containing DMSO or 30 nM okadaic acid. Cells were incubated for an additional […] at 37 °C/5% CO2 in a humidified incubator. Following this incubation, 12.5 uL 1X Nano-Glo live cell luciferase reagent (Promega) diluted in LCS buffer (Promega) was added to each well, and samples were incubated for 10 min at room temperature in the dark to allow luminescence levels to stabilize. […] Un-transfected cells were used to obtain background measurements which were subtracted from observed luminescence values.

CHIP [2] = test: CHIP-tau binding ELISA (tau proteoforms on immobilized CHIP); conditions: Fig 1D

tau: full length (FL) 0N4R splice isoform of tau, unmodified; recombinant or expressed in cells
fold change of luminescence (CHIP [1]; replicate 1): 1.804
fold change of luminescence (CHIP [1]; replicate 2): 1.978
fold change of luminescence (CHIP [1]; replicate 3): 1.758
Kd (CHIP [2]; replicate 1): 5.98 µM
Kd (CHIP [2]; replicate 2): 6.43 µM
Kd (CHIP [2]; replicate 3): 6.35 µM
Kd (CHIP [2]; read-out: transformed Kd, replicate 1): 5.98 µM
Kd (CHIP [2]; read-out: transformed Kd, replicate 2): 6.43 µM
Kd (CHIP [2]; read-out: transformed Kd, replicate 3): 6.35 µM
